The test system of series [1] is human colorectal cancer HCT 116 cells. Put plainly: Cell cycle analysis (FACS) in HCT 116 cells. The format is cell-based. The settings on record: 40 μM, 24 and 36 hours. As to the method:
Cells were treated with 40 μM of thio-Cl-IB-MECA and cultured for 24 and 36 hours, and the cell cycle of the cells was analyzed by flow cytometer analysis (FACS). Specifically, cells were diluted with 10% FBS-containing medium to a density of 1.0×10^6 cells per 100 mm culture dish and cultured under the conditions of 37° C. and 5% CO2 for 24 hours, followed by washing twice with PBS. Thio-Cl-IB-MECA was diluted in 10% FBS-containing medium to a concentration of 40 μM, and then 10 ml of the culture medium prepared in the 100 mm culture dish was added thereto and cultured for a given time. The non-adherent cells and adherent cells in the cell medium were collected and washed twice with PBS, after which 500 μL of 100% cold methanol was added thereto and the cells were fixed at 4° C. The cells were washed twice with PBS and allowed to stand in RNase A-containing solution for 30 minutes, after which the cells were stained with propidium iodide (PI) buffer for 5 minutes. After removal of the PI buffer, the cells were transferred into a polystyrene round-bottom tube, and the cycle of the cells was analyzed by FACScalibur® flow cytometry.

In another series the test system is ICR white mice. Briefly: Animal toxicity test, single oral dose. The following applies: oral 1500 mg/kg, n=10. The format is in vivo. As to the method: In order to examine the toxicities of thio-Cl-IB-MECA and thio-IB-MECA, each of the compounds was administered orally to ICR white mice (n=10, 25 g) at a dose of 1500 mg/kg weight, and the behavioral change and state of the mice were observed.

For a further series, the system named is HCT 116 cells. Put plainly: Western blot of cell cycle regulation-related proteins and Wnt signaling in HCT 116 cells. The following applies: 40 μM. The format is cell-based, human. As to the method:
Because it was confirmed that thio-Cl-IB-MECA arrests the G1 phase of human colorectal cancer HCT 116 cells, a test was carried out to examine whether cell cycle regulation-related proteins involved in the G1 phase are expressed and to examine the expression of Wnt-related proteins in order to examine whether the inhibitory effect of thio-Cl-IB-MECA on the proliferation of cancer cells is attributable to regulation of the signaling pathway.
Specifically, HCT 116 cells were diluted with 10% FBS-containing medium to a density of 1×10^6 cells per 100 mm culture dish and cultured under the conditions of 37° C. and 5% CO2 for 24 hours, followed by washing twice with PBS. Thio-Cl-IB-MECA was diluted in 10% FBS-containing medium to a concentration of 40 μM, and then 10 ml of the culture medium prepared in the 100 mm culture dish was added thereto and cultured for a given period. The non-adherent cells and adherent cells in the cell medium were collected and washed twice with PBS, after which the cells were suspended in boiling cell lysis buffer and heated at 100° C. for 5 minutes. The cells were cooled and then stored at […], and the stored cells were thawed at 37° C. immediately before use in protein quantification and electrophoresis. Protein quantification was performed using the BCA method, and […] of protein was electrophoresed on 8-12% SDS-polyacrylamide gel at 150 V for 110 minutes. The gel at the desired site was cut and transferred to a PVDF (polyvinylidene fluoride) for 1 hour, and after which it was washed twice with PBST and stirred in blocking buffer at room temperature for 1 hour. Then, the membrane was washed three times with PBST for 5 minutes each time, after which primary antibody was diluted at a ratio of 1:1,000-1:2,000 with 3% skimmed milk/PBST, and it was sealed together with the membrane and incubated with stirring at 4° C. for 12 hours or more. The membrane was washed 2-3 times with PBST for 5 minutes each time, after which HRP-conjugated secondary antibody was diluted at a ratio of 1:1,500-1:2,000 and incubated with the membrane at room temperature for 2-3 hours. The membrane was washed three times with PBST for 5 minutes each time and treated with a Western blot substrate (WESTSAVE Up™), and the produced luminescence was examined using LAS-3000.
On the technique in general: In western blotting, separated proteins are transferred to a membrane and probed.

The next series deals with LNCaP cells. Briefly: Western blot of cell cycle regulation-related proteins and Wnt signaling in LNCaP cells. The format is cell-based, human. As to the method: A test was carried out to examine whether the inhibitory effects of thio-Cl-IB-MECA on the proliferation of LNCaP cells and PC-3 cells are attributable to regulation of the Wnt signaling pathway.
Specifically, each type of LNCaP cells and PC-3 cells was diluted with 10% FBS-containing medium to a density of 1.0×10^6 cells per 100 mm culture dish and cultured under the conditions of 37° C. and 5% CO2 for 24 hours, followed by washing twice with PBS. Thio-Cl-IB-MECA was diluted in 10% FBS-containing medium at required concentration, and then 10 ml of the culture medium prepared in the 100 mm culture dish was added thereto and cultured for a given period. The non-adherent cells and adherent cells in the cell medium were collected and washed twice with PBS, after which the cells were suspended in boiling cell lysis buffer and heated at 100° C. for 5 minutes. The cells were cooled and then stored at […], and the stored cells were thawed at 37° C. immediately before use in protein quantification and electrophoresis. Protein quantification was performed using the BCA method, and […] of protein was electrophoresed on 8-12% SDS-polyacrylamide gel at 150 V for 110 minutes. The gel at the desired site was cut and transferred to a PVDF (polyvinylidene fluoride) for 1 hour, and after which it was washed twice with PBST and stirred in blocking buffer at room temperature for 1 hour. Then, the membrane was washed three times with PBST for 5 minutes each time, after which primary antibody was diluted at a ratio of 1:1,000-1:2,000 with 3% skimmed milk/PBST, and it was sealed together with the membrane and incubated with stirring at 4° C. for 12 hours or more. The membrane was washed 2-3 times with PBST for 5 minutes each time, after which HRP-conjugated secondary antibody was diluted at a ratio of 1:1,500-1:2,000 and incubated with the membrane at room temperature for 2-3 hours. The membrane was washed three times with PBST for 5 minutes each time and treated with a Western blot substrate (WESTSAVE Up™), and the produced luminescence was examined using LAS-3000.

The test system of a further series is PC-3 cells. Briefly: Cell cycle analysis (FACS) in PC-3 cells. The series is classed as cell-based, human. The settings on record: 40, 20 and 10 μM, 48 hours. As to the method: Cells were treated with 40, 20 and 10 μM of thio-Cl-IB-MECA and cultured for 48 hours, and the cell cycle of the cells was analyzed by flow cytometer analysis (FACS). Specifically, cells were diluted with 10% FBS-containing medium to a density of 1.0×10^6 cells per 100 mm culture dish and cultured under the conditions of 37° C. and 5% CO2 for 24 hours, followed by washing twice with PBS. Thio-Cl-IB-MECA was diluted in 10% FBS-containing medium at required concentration, and then 10 ml of the culture medium prepared in the 100 mm culture dish was added thereto and cultured for a given time. The non-adherent cells and adherent cells in the cell medium were collected and washed twice with PBS, after which 500 μL of 100% cold methanol was added thereto and the cells were fixed at 4° C. The cells were washed twice with PBS and allowed to stand in RNase A-containing solution for 30 minutes, after which the cells were stained with propidium iodide (PI) buffer for 5 minutes. After removal of the PI buffer, the cells were transferred into a polystyrene round-bottom tube, and cell cycle analysis was performed by FACScalibur® flow cytometry.

Molecules are shown by their SMILES.

Consider `CNC(=O)[C@H]1S[C@@H](n2cnc3c(NCc4cccc(I)c4)nc(Cl)nc32)[C@H](O)[C@@H]1O` [thio-Cl-IB-MECA, 2-chloro-N^6-(3-iodobenzyl)-4′-thioadenosine-5′-N-methyluronamide], for which, in series [1], the “G1 phase of cell cycle, HCT 116” value is on record as “an increase in the G1 phase”. In the series with ICR white mice, the “survival and side effects up to 7 days after administration” value was “survived healthfully without particular side effects”. In addition, in the series with HCT 116 cells, the Wnt signaling pathway result was “inhibited the Wnt signaling pathway”; the “expression of Rb and p-Rb” value was “also inhibited the expression”; the “expression of cyclin D1, cyclin A and cyclin E” value is listed as “inhibited the expression”; the “expression of p53” value is “increased the expression”. In the series on LNCaP cells, the “Wnt signaling pathway, LNCaP” value is listed as “inhibited the Wnt signaling pathway”; the “expression and RB phosphorylation of cyclin D, cyclin A, CDK4, c-myc and PCNA, LNCaP” value was “inhibited the expression and RB phosphorylation”; the “expression of p53 and p27, LNCaP” value was “increased the expression”. For the same compound, in the series with PC-3 cells, the “G1 phase of cell cycle, PC-3” value is reported as “an increase in the G1 phase appeared”.
